Consider five compounds from patent publication US6492330B1, “Antiangiogenic drugs” (National Institute of Immunology, priority 1996, dated 2002).

Non-standard residues stand in square brackets, D forms with d. No end group written: not given here. dPhe(4-Cl) = N[C@H](Cc1ccc(Cl)cc1)C(=O)O

In one experiment the test system is EaHy.926. The experiment in a line: MTT assay, inhibition of proliferation of endothelial cells EaHy.926. It counts as cell-based. The following applies: 72 hours. The method, then:
(§1) 150 μl of medium was added to the wells of a 96-well tissue culture plate (Nunc, Denmark) followed by 30 μl of cell suspension. The plate was left in incubator (37° C., 5% CO2) overnight. Each of the seven peptides of the combination MuJ-7 were added at three molar concentrations of 10^−7M, 10^−8M and 10^−9M. 20 μl of MuJ-7 at three concentrations of N/10, N and 10N was added to marked wells of the 96-well plate. The value of N for each of the individual peptides was 10^−8M for VIP2, BOM1, SP1, VIP3, and SOM2 and 10^−7M for VIP1, and 10^−9M for SOM1. Each concentration was plated in triplicate. 20 μl of medium alone was added to control wells while wells without cells served as blanks. A total volume of 200 μl was ensured in each well and the plate was left in an incubator (37° C., 5% CO2). After 72 hours of incubation an MTT assay was performed and percentage inhibition in proliferation of treated cells was calculated with respect to control cells.

Another experiment relates to ECV.304 cells. Briefly: MTT assay, inhibition of proliferation of endothelial cells ECV.304. It counts as cell-based. To be noted: 72 hours (Table 1). The method, then:
as §1
150 μl of medium was added to the wells of a 96-well tissue culture plate (Nunc, Denmark) followed by 30 μl of cell suspension. The plate was left in incubator (37° C., 5% CO2) overnight. Novel peptides shown below were incubated with cells at concentration range of 10^−7 to 10^−9 M (except DT71 at concentration range 10^−8 to 10^−10 M). Each concentration was plated in triplicates. 20 μl of medium alone was added to control wells while wells without cells served as blanks. A total volume of 200 μl was ensured in each well and plate was left in incubator (37° C., 5% CO2). After 72 hours of incubation an MTT assay was performed and percentage inhibition in proliferation of treated cells was calculated with respect to control cells.

The subject of experiment [1] is endothelial cells ECV.304. Briefly: Migration assay across 8 μm polycarbonate filter transwell inserts. The format is cell-based. To be noted: N = 10^−8 M for VIP2, BOM1, SP1, VIP3, SOM2, 10^−7M for VIP1, 10^−9M for SOM1, 24 hours. The method, then:
Polycarbonate filter transwell inserts (24 well size) with 8 μm pores (Nunc, Denmark) were used for the migration assay. ECV304 (10^4 cells/200 ul DMEM containing 0.1% BSA) was added to the upper chamber. The lower chamber contained 600 ul of DMEM with 0.1% BSA. Individual peptides of the composition MuJ-7 at six different concentrations each of N/100, N/10, N, 10N, 100N and 1000N were added directly to the upper well and the plate incubated at 37° C. for 24 hours. The cells migrated to the lower chamber were viewed randomly at five different phase-contrast microscopic fields and the total number of cells counted using Video Pro 32 Image Analysis system. Percent inhibition in migration was determined with reference to the Control. Similarly, […] different concentrations of N/100, N/10, N, 10N, 100N and 1000N of MuJ-7 were added directly to the upper well and the plate incubated at 37° C. for 24 hours. The cells migrated to the lower chamber were counted as described above.
Polycarbonate filter trasnwell inserts (24 well size) with 8 μm pores (Nuno, Denmark) were used for the migration assay. ECV304 (10^4 cells/200 ul DMEM containing 0.1% BSA) was added to the upper chamber. The lower chamber contained 600 ul of DMEM with 0.1% BSA. […] The sequence of each of the peptides added are described above. The cells migrated to the lower chamber were viewed randomly at five different phase-contrast microscopic fields and the total number of cells counted using Video Pro 32 Image Analysis system. Percent inhibition in migration was determined with reference to Control. […]

A further experiment deals with ECV304. Briefly: Tube-like-structure (TLS) formation on Matrigel. The format is cell-based. The following applies: N = 10^−8 M for VIP2, BOM1, SP1, VIP3, SOM2, 10^−7M for VIP1, 10^−9M for SOM1, 24 hours. How it is done: Matrigel (350 ul) was placed into each well of a 24-well culture plate at 4° C. and was allowed to polymerize by incubation at 37° C. for 30 min. ECV304 (1.5×10^4) were seeded on the Matrigel in 500 ul DMEM supplemented with 10% FBS. MuJ-7 at four different concentrations of 0.25×, 0.5×, ×, & 5.0× were added and. the plate incubated at 37° C. for 24 hour. “×” denotes normal concentration of MuJ-7 where molar concentration of individual peptides was 10^−8 M for VIP2, BOM1, SP1, VIP3 and SOM2 and 10^−7 M for VIP1 and 10^−9 M for SOM1. […] Percent inhibition in tube area was determined with reference to untreated cells.
Matrigel (350 ul) was placed into each well of a 24-well culture plate at 4° C. and was allowed to polymerize by incubation at 37° C. for 30 min. ECV304 (1.5×10^4) were seeded on the Matrigel in 500 ul DMEM supplemented with 10% FBS. […] Percent inhibition in tube length was determined with reference to untreated cells.
Matrigel (350 ul) was placed into each well of a 24-well culture plate at 4° C. and was allowed to polymerize by incubation at 37° C. for 30 min. ECV304 (1.5×10^4) were seeded on the Matrigel in 500 ul DMEM supplemented with 10% FBS. Individual peptides of the composition MuJ-7 at three different concentrations each of N/10, N, and 10N were added and the plate incubated at 37° C. for 24 hours. […] Percent inhibition in tube length was determined with reference to Control. Similarly, three different concentrations of N/10, N, and 10N of MuJ-7 were added to the well and the plate incubated at 37° C. for 24 hours. Percent inhibition in tube length was determined with reference to Control as described previously (Table 10).

A further experiment has as its target VIP-receptor complex. To be noted: n=6; K-A is the dissociation constant of VIP-receptor complex; cited from earlier work.
In experiment [2] the test system is human umbelical vein endothelial cells (HUVEC). To be noted: 10^−9M octreotide; cited from earlier work.
Experiment [3] has as its system vascular cells from explants of rat aorta. The following applies: 10^−8M octreotide; cited from earlier work.
A further experiment concerns aortic rings in fibrin. To be noted: 10^−8M octreotide; cited from earlier work.

Turning to LMYPTYLK [VIP2], the “Percent Inhibition Proliferation” value is 32% in the experiment on EaHy.926 (EaHy.926, peptide 10^−7M); 28% with EaHy.926 (EaHy.926, peptide 10^−8M); 42% with EaHy.926 (EaHy.926, peptide 10^−9M); 24% with ECV.304 cells (ECV.304, peptide 10^−7M); 25% in the experiment on ECV.304 cells (ECV.304, peptide 10^−8M); 22% with ECV.304 cells (ECV.304, peptide 10^−9M). The “Percent inhibition in migration” value in experiment [1] (10N) is 88.15%; in experiment [1] (100N), 92.90%; in experiment [1] (1000N), 0.00%; in experiment [1] (N/10), 91.75%; in experiment [1] (N/100) it was 0.00%; in experiment [1] (N), 89.05%. In addition, the “Percent inhibition in TLS activity (TLS length)” value is reported as 3.3% with ECV304 (10N), 0.0% in the experiment with ECV304 (N/10) and 1.0% with ECV304 (N).
On to vasoactive intestinal polypeptide [VIP], for which the “pKa value for VIP-receptor complex” value on VIP-receptor complex is given as 8.10+/−0.10.
In the case of “His-Ser-Asp-Ala-Val-4-Cl-D-Phe-Thr-Asp-Asn-Tyr-Thr-Arg-Leu-Arg-Lys-Gln-Leu-Ala-Val-Lys-Lys-Tyr-Leu-Asn-Ser-Ile-Leu-Asn-NH2 (HSDAV[dPhe(4-Cl)]TDNYTRLRKQLAVKKYLNSILN-NH2; N-terminus assumed; SMILES CC[C@H](C)[C@H](NC(=O)[C@H](CO)NC(=O)[C@H](CC(N)=O)NC(=O)[C@H](CC(C)C)NC(=O)[C@H](Cc1ccc(O)cc1)NC(=O)[C@H](CCCCN)NC(=O)[C@H](CCCCN)NC(=O)[C@@H](NC(=O)[C@H](C)NC(=O)[C@H](CC(C)C)NC(=O)[C@H](CCC(N)=O)NC(=O)[C@H](CCCCN)NC(=O)[C@H](CCCNC(=N)N)NC(=O)[C@H](CC(C)C)NC(=O)[C@H](CCCNC(=N)N)NC(=O)[C@@H](NC(=O)[C@H](Cc1ccc(O)cc1)NC(=O)[C@H](CC(N)=O)NC(=O)[C@H](CC(=O)O)NC(=O)[C@@H](NC(=O)[C@@H](Cc1ccc(Cl)cc1)NC(=O)[C@@H](NC(=O)[C@H](C)NC(=O)[C@H](CC(=O)O)NC(=O)[C@H](CO)NC(=O)[C@@H](N)Cc1c[nH]cn1)C(C)C)[C@@H](C)O)[C@@H](C)O)C(C)C)C(=O)N[C@@H](CC(C)C)C(=O)N[C@@H](CC(N)=O)C(N)=O) [VIP3]”, the “Percent Inhibition Proliferation” value with EaHy.926 (EaHy.926, peptide 10^−7M) was 21%; in the experiment with EaHy.926 (EaHy.926, peptide 10^−8M), 9%; in the experiment on EaHy.926 (EaHy.926, peptide 10^−9M), 24%; in the experiment on ECV.304 cells (ECV.304, peptide 10^−7M), 21%; in the experiment on ECV.304 cells (ECV.304, peptide 10^−8M) it was 25%; in the experiment with ECV.304 cells (ECV.304, peptide 10^−9M) it was 22%. Also, the “Percent inhibition in migration” value in experiment [1] (10N) was found to be 23.90%; in experiment [1] (100N) it was 11.62%; in experiment [1] (1000N) it was 0.00%; in experiment [1] (N/10) it was 32.80%; in experiment [1] (N/100), 0.00%; in experiment [1] (N) it was 92.45%.
Take `C[C@@H](O)[C@@H]1NC(=O)[C@H](CCCCN)NC(=O)[C@@H](Cc2c[nH]c3ccccc23)NC(=O)[C@H](Cc2ccccc2)NC(=O)[C@@H](NC(=O)[C@H](N)Cc2ccccc2)CSSC[C@@H](C(=O)N[C@H](CO)[C@@H](C)O)NC1=O` [octreotide]: in experiment [2], the “reduction of mean uptake of 3H-thymidine compared with controls” value is 37%. The “inhibition of proliferation compared with controls” value in experiment [3] is recorded as 32.6%. Besides, in the experiment on aortic rings in fibrin, the “reduction of sprouting compared with controls” value was 33.2%.
Take [dR]PKP[dF]Q[dW]F[dW]LL-NH2 [SP1]: the “Percent Inhibition Proliferation” value in the experiment on EaHy.926 (EaHy.926, peptide 10^−7M) is 49%; in the experiment on EaHy.926 (EaHy.926, peptide 10^−8M), 32%; with EaHy.926 (EaHy.926, peptide 10^−9M), 37%; with ECV.304 cells (ECV.304, peptide 10^−7M), 18%; with ECV.304 cells (ECV.304, peptide 10^−8M), 24%; with ECV.304 cells (ECV.304, peptide 10^−9M) it was 22%. Besides, the “Percent inhibition in migration” value in experiment [1] (10N) turned out to be 92.65%; in experiment [1] (100N) it was 78.10%; in experiment [1] (1000N), 18.10%; in experiment [1] (N/10), 94.10%; in experiment [1] (N/100), 13.97%; in experiment [1] (N) it was 90.50%. Further, the figures for the “Percent inhibition in TLS activity (TLS length)” value with ECV304 (10N), in the experiment with ECV304 (N/10) and in the experiment with ECV304 (N) were 3.0%, 14.4% and 8.9%, respectively.
